Test results reported in patent publication US20240269170A1, “Treatment of Inflammatory Conditions or Diseases” (Queen Mary University of London, priority 2021, published 2024).

System: K/B×N serum induced arthritis in mice
Test: K/B×N serum transfer inflammatory arthritis, MCTR3 given immediately after disease onset
Format: in vivo, mouse
Experimental: FIG. 7: MCTR3 limits joint inflammation. Mice were administered K/B×N serum on days 0 and 2 and then treated with MCTR3 (100 ng/mouse) or Vehicle (PBS+0.1% EtOH) on days 3 and 5. Disease course was evaluated by assessing (A) clinical scores. (B-C) On day 7 joints were collected and disease severity was evaluated using (B) H&E Staining and (C) glycosaminoglycan content was assessed using Safranin-O staining, arrows denote Safranin-O staining in cartilage. Results for A are presented as mean±SEM. Statistical differences for A were evaluated using Two-Way ANOVA. n=4 mice per group. IFP=intrapatellar fat, M=meniscus, TB=Tibia, PF=Pannus formation, Red arrows denote leukocyte infiltration. (D-E) Lipid mediator profiles were determined using LC-MS/MS-based lipid mediator profiling and evaluated using PLS-DA. (D) scores plot with highlighted regions denoting the clusters representing cells from each group and (E) VIP scores for top 15 mediators. Each dot in the score plot represents a separate mouse.
For this purpose, we employed a serum transfer model of inflammatory arthritis, which relies on the activation of the innate immune system replicating the effector phase of rheumatoid arthritis (Korganow et al., 1999, Immunity 10, 451-461). […] We next evaluated whether MCTR3 administration also regulated the joint lipid mediator profile. Using partial least square discriminant analysis, which produces a regression model built using concentrations of lipid mediators differently expressed between the two groups, we found a shift in joint lipid mediator concentrations in mice treated with MCTR3. This shift was linked with a downregulation of pro-inflammatory and nociceptive eicosanoids including PGE2 and PGF2a and an upregulation of pro-resolving and anti-nociceptive mediators such as MaR1 and PDX (FIG. 7D,E).
All samples were extracted using solid-phase extraction columns as in (Gomez et al., 2020, Nat Commun 11, 5420). In brief, samples were placed in ice-cold methanol containing deuterated internal standards (d8-5S-HETE, d4-LTB4, d5-LXA4, d4-PGE2, d5-RvD2, d5-MaR1, d5-MaR2, d5-RvD3, d4-RvE1, d5-17R-RvD1, d5-LTC4, d5-LTD4 and d5-LTE4) representing each chromatographic region of identified LM. Following protein precipitation (−20° C. for a minimum of 45 min), samples were centrifuged and supernatants extracted using an ExtraHera System (Biotage) using solid-phase extraction with Isolute C18 500 mg columns (Biotage). Methyl formate and methanol fractions were collected, brought to dryness and resuspended in phase (methanol/water, 1:1, vol/vol) for injection on a Shimadzu LC-20AD HPLC and a Shimadzu SIL-20AC autoinjector, paired with a QTrap 5500 or QTrap 6500^+ (Sciex). In the analysis of mediators eluted in the methyl formate fraction, an Agilent Poroshell 120 EC-C18 column (100 mm×4.6 mm×2.7 μm) was kept at 50° C. and mediators eluted using a mobile phase consisting of methanol/water/acetic acid of 20:80:0.01 (vol/vol/vol) that was ramped to 50:50:0.01 (vol/vol/vol) over 0.5 min and then to 80:20:0.01 (vol/vol/vol) from 2 min to 11 min, maintained till 14.5 min and then rapidly ramped to 98:2:0.01 (vol/vol/vol) for the next 0.1 min. This was subsequently maintained at 98:2:0.01 (vol/vol/vol) for 5.4 min, and the flow rate was maintained at 0.5 ml/min. QTrap 5500 was operated in negative ionization mode using a multiple reaction monitoring method. […]

[1] = 100 ng/mouse on days 3 and 5, LC-MS/MS, PLS-DA
[2] = 100 ng/mouse on days 3 and 5, joints day 7

`CC/C=C\C/C=C\C[C@H](O)[C@@H](/C=C/C=C/C=C\C/C=C\CCC(=O)O)SC[C@H](N)C(=O)O` [MCTR3, 13R-cysteinyl, 14S-hydroxy-4Z, 7Z, 9E, 11E, 13R, 14S, 16Z, 19Z-docosahexaenoic acid] was tested, and the “joint pro-inflammatory and nociceptive eicosanoids including PGE2 and PGF2a” value [1] was “downregulation”, the “joint pro-resolving and anti-nociceptive mediators such as MaR1 and PDX” value [1] was “upregulation” and the “leukocyte infiltration (H&E)” value [2] was “decrease”. For the same molecule, the “safranin staining (glycosaminoglycan content in the cartilage)” value [2] was “increased” and the clinical scores (100 ng/mouse on days 3 and 5, vs vehicle) was “significant reduction”.
